Measured values published in patent publication US20240207337A1, “MYCELIAL CULTURE OF Irpex lacteus AND COMPOSITION COMPRISING SAME AS ACTIVE INGREDIENT FOR PREVENTION AND TREATMENT OF DIABETES MEILLITUS” (LONGRUNN MEDICAL FOOD PTE. LTD., priority 2021, published 2024).

Experiments:
Format in all cases: in vivo
db/db mice [1] = experiment: Blood insulin and c-peptide measurement (ELISA) in db/db mice; conditions: three weeks
Description: C-peptide is a substance that is secreted when proinsulin, a precursor of insulin, is degraded and released. The peptide, although lacking bioactivity, accounts for the secretion state of insulin. In addition, with a long half-life, C-peptide is used as an index to evaluate insulin secretion. The sera stored in separation were quantitatively assayed for insulin and c-peptide, using an ELISA kit (Shibayagi, AKRIN-011T and AKRCP-031).

db/db mice [2] = experiment: Oral glucose tolerance test (OGTT) in db/db mice; conditions: G5: Diabex 400 mg/kg oral
Experimental: (1) The OGTT measures the body's ability to use glucose.
(2) After 6 days of acclimatization, OGTT test animals were fasted for 16 hours before OGTT (water provided).
(3) Blood glucose was measured 30 minutes before administration of the test substance and once again 30 minutes later, that is, just before glucose administration.
(4) At 30, 60, 90, 120, and 240 min after administration of oral glucose at a dose of 2 g/10 mL/kg, blood was taken from tail veins and measured for glucose levels using a blood glucose meter (Accu-Check Performa).

db/db mice [3] = experiment: Blood glucose level after repeated oral administration for three weeks in db/db mice; conditions: G5: Diabex 400 mg/kg/day oral
Experimental: In this experiment, the test material lyophilizate of a mycelial culture of Irpex lacteus KACC 83046BP was orally administered to the db/db mice, which are an animal model of diabetes, for three weeks and examined for hypoglycemic effect. This test was conducted in the Local Food Institute of Gimcheon University.
For use in tests, sterile water for injection (excipient) was used as a negative control while Diabex tablet ([…], 500 mg) commercially available from Dai Han Pharm. Co., Ltd. (Kyeonggi-do) was used as a positive control. A test substance was divided into three groups: high-, medium-, and low-dose groups, which were prepared in suspension by adding the same amount of the test substance to different amounts of the sterile water for injection.
Blood glucose levels were measured once a week for three weeks during the experiment. In order to objectively measure blood glucose levels, all experimental animals were blocked from eating feed 6 hours before blood glucose measurement on the day of blood glucose measurement. Blood glucose levels were measured using a portable blood glucose meter (Accu-Check Performa/USA).

db/db mice [4] = experiment: Histopathological examination of pancreas (H&E) in db/db mice; conditions: G5: Diabex 400 mg/kg/day oral, three weeks
Experimental: All the experimental animals were anesthetized by inhalation with CO2 and autopsied by laparotomy, and blood was collected from the posterior vena cava. After blood collection, the animals were killed by excision of the abdominal aorta and posterior vena cava and exsanguination. For histopathological examination, hematoxylin & eosin (H&E) staining was conducted to measure numbers and diameters of pancreatic islets and proportions of zymogen granules per unit area of exocrine pancreatic portions.

db/db mice [5] = experiment: Hemato-biochemical examination in db/db mice; conditions: G5: Diabex 400 mg/kg/day oral, three weeks
Experimental: Of the blood collected for clinical pathology on the day of the end of the experiment, about 200 μL was used for analyzing glycated hemoglobin (HbA1c) while the remainder was left for 30 min or longer at room temperature in a vacutainer tube containing a clot activator and then centrifuged at 3000 rpm for 10 min. The serum obtained by centrifugation was transferred to a new tube and subjected to hemato-biochemical examination.
Using a hemato-biochemical analyzer, whole blood and sera which had been stored separately were subjected to hemato-biological examination for total cholesterol (TCHO), aspartate aminotransferase (AST), high-density lipoprotein (HDL), low-density lipoprotein (LDL), alanine aminotransferase (ALT), and glycated hemoglobin (HbA1c).

For metformin phosphate [Diabex], which “Blood insulin compared to the negative control (G1)” value (db/db mice [1]; G5 (Diabex 400 mg/kg) oral) is on record?
Its value is “significant decrease”.

What about the “Blood C-peptide level” value (db/db mice [1]; G5: Diabex 400 mg/kg/day oral) of the same substance?
The value was 459.7 ± 82.3 pg/mL.

And the Blood insulin level (db/db mice [1]; G5: Diabex 400 mg/kg/day oral)?
The Blood insulin level was 1.96 ± 0.39 ng/mL.

What about the “Blood glucose level (OGTT)” value (db/db mice [2]; 0 min (just before glucose 2 g/kg)) of the same substance?
Its value is 385 ± 33 mg/dL.

And the “Blood glucose level (OGTT)” value (db/db mice [2]; 30 min after glucose)?
The value was 421 ± 29 mg/dL.

What about the “Blood glucose level (OGTT)” value (db/db mice [2]; 60 min after glucose) of the same substance?
Its value is 343 ± 12 mg/dL.

And the “Blood glucose level (OGTT)” value (db/db mice [2]; 90 min after glucose)?
The value was 246 ± 26 mg/dL.

And the “Blood glucose level (OGTT)” value (db/db mice [2]; 120 min after glucose)?
The value was 208 ± 11 mg/dL.

And the “Blood glucose level (OGTT)” value (db/db mice [2]; 240 min after glucose)?
The value was 174 ± 22 mg/dL.

And the “Blood glucose level (OGTT)” value (db/db mice [2]; −30 min (before administration))?
Its value is 265 ± 11 mg/dL.

What about the Blood glucose level (db/db mice [3]; Day 1 (first day of administration)) of the same substance?
The Blood glucose level was 365 ± 24 mg/dL.

What about the Blood glucose level (db/db mice [3]; Week 1) of the same substance?
Its Blood glucose level is 371 ± 12 mg/dL.

What about the Blood glucose level (db/db mice [3]; Week 2) of the same substance?
Its Blood glucose level is 452 ± 13 mg/dL.

What about the Blood glucose level (db/db mice [3]; Week 3) of the same substance?
The Blood glucose level was 436 ± 11 mg/dL.

What about the Diameter of islet (db/db mice [4]) of the same substance?
Its Diameter of islet is 126.25 ± 5.3 μm.

What about the “No. of pancreatic Islets” value (db/db mice [4]) of the same substance?
Its value is 6.25 ± 0.1 islets/cm^2.

And the Zymogen granules (db/db mice [4])?
Its Zymogen granules is 41.39 ± 0.7 %/mm^2 of exocrine pancreas.

And the ALT (db/db mice [5])?
Its ALT is 72.1 ± 4.5 U/L.

And the AST (db/db mice [5])?
Its AST is 116.5 ± 4.6 U/L.

And the HDL (db/db mice [5])?
The HDL was 88.2 ± 4.2 mg/dL.

What about the HbA1c (db/db mice [5]) of the same substance?
The HbA1c was 6.8 ± 0.2 %.

What about the LDL (db/db mice [5]) of the same substance?
Its LDL is 25.9 ± 2.7 mg/dL.

What about the TCHO (db/db mice [5]) of the same substance?
The TCHO was 116.7 ± 3.2 mg/dL.
